Experimental data taken from US7388105B2, “Compounds and use to reduce the formation of malodour” (Givaudan S.A., priority 2005, dated 2008).
Read-outs that look alike come from different tables or passages of the source.

Biological target: alpha-N-acyl-glutamine-aminoacylase (Corynebacterium striatum, UniProt Q8GGD4)
Assay: Competitive substrates of alpha-N-acyl-glutamine-aminoacylase: reduction of acid release
Type: biochemical
Conditions: for inhibition at 50 µM: tested compound 0.05 mM; for inhibition at 50 µM / inhibition at 100 µM / inhibition at 200 µM / inhibition at 400 µM: 15 min; for inhibition at 100 µM: tested compound 0.1 mM; for inhibition at 200 µM: tested compound 0.2 mM; for inhibition at 400 µM: tested compound 0.4 mM
Procedure: In a sample, the enzyme alpha-N-acyl-glutamine-aminoacylase was used at a concentration of 36 ng/ml in Buffer A (50 mM NaCl; 50 mM NaH2PO4/K2HPO4; pH 7). To each sample, alpha-N-decanoyl-glutamine or alpha-N-(E)-3-methyl-2-hexenoyl-glutamine was added at a final concentration of 0.2 mM as a substrate.
Further, to each sample various competitive substrates are added as shown in Table 1 below at different concentrations as indicated.
The resulting samples with enzyme, substrate and competitive substrate were incubated for 15 minutes, acidified to pH 2 with HCl and extracted with methyl tert butyl ether (MTBE). […] The percentage of the reduction of the release when compared to the positive control is given in Table 1 (equals inhibition of the enzmye).

[1] = substrate alpha-N-decanoyl-glutamine 0.2 mM, release of decanoic acid vs positive control, read-out: % Inhibition (DA)
[2] = substrate alpha-N-(E)-3-methyl-2-hexenoyl-glutamine 0.2 mM, release of (E)-3-methyl-2-hexenoic acid vs positive control, read-out: % Inhibition (MH)

Sequence of alpha-N-acyl-glutamine-aminoacylase (Q8GGD4 whole entry): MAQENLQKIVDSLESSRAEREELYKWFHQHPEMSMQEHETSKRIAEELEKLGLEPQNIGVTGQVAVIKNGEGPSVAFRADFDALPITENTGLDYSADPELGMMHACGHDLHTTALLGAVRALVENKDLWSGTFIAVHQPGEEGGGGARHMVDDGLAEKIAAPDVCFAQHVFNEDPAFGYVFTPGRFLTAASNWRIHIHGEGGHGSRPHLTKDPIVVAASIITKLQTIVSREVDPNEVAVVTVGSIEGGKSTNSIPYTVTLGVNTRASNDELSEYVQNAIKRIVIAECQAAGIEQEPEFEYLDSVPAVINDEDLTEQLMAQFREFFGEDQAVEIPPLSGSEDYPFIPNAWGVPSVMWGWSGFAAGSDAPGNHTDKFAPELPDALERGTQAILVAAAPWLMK

Compound	Inhibition of Nα-acyl-glutamine-aminoacylase (in words) (summary of Table 1)	inhibition at 50 µM [1]	inhibition at 100 µM [2]	inhibition at 100 µM [1]	inhibition at 200 µM [2]	inhibition at 200 µM [1]	inhibition at 400 µM [2]
CC(CCOC(=O)NC(CCC(N)=O)C(=O)O)CCc1ccccc1 [Compound 1, alpha-N-(3-Methyl-5-phenylpentanyloxycarbonyl)-L-glutamine]	particularly good inhibitor	38.3%	35.5%	57%	58.1%	64.4%	78.3%
C=CCCCCCCCCC(=O)NC(CCC(N)=O)C(=O)O [Compound 2, alpha-N-(10-undecenoyl)-L-glutamine]	–	0.9%	0%	2.2%	2.1%	15.6%	24.2%
CC1CCC(C(C)C)C(OC(=O)NC(CCC(N)=O)C(=O)O)C1 [Compound 3, alpha-N-(2-isopropyl-5-methylcyclohexanyloxycarbonyl)-L-glutamine]	–	–	7.4%	19.3%	16.5%	27.2%	33.9%
CC(C)=CCCC(C)CCOC(=O)NC(CCC(N)=O)C(=O)O [Compound 4, alpha-N-(3,7-dimethyl-oct-6-enyloxycarbonyl)-L-glutamine]	–	15.9%	-0.3%	13.8%	17.1%	34.6%	16.1%
CCCCOC(=O)N[C@@H](CCC(N)=O)C(=O)O [Compound 5, alpha-N-Butyloxycarbonyl-L-glutamine]	–	6.7%	1.1%	6.8%	0%	10.4%	0%
CC(C)(C)C1CCC(OC(=O)N[C@@H](CCC(N)=O)C(=O)O)CC1 (stereo partly drawn) [Compound 6, alpha-N-(4-tert-Butylcyclohexyloxycarbonyl)-L-glutamine]	–	11.3%	4.9%	14.3%	14.8%	21.2%	28.5%
